pEC50: −log10 of the molar value. Like-named read-outs stand apart in the source and are kept apart here.
Tests used:
MDR1 [1] = test: in vitro; details: dog, MDCK-MDR1, pH 7.4
MDR1 (P-gp) [2] = test: in vitro; details: dog, MDCK-MDR1, pH 7.4
[3] = test system: MDR1-MDCK cell monolayers; details: dog, MDCK-MDR1, 120 min, 5 μM, pH 7.4
[4] = test system: mHTT protein in GM04724 (CAG 70/20) Huntington's disease patient lymphoblast cells; test: mHTT protein assay, 2B7-MW1 assay via Mesoscale Discovery (MSD); format: cell-based, human
In short: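 Signal from the 2B7-MW1 antibody pair on MSD, rising with polyQ length and smaller HTT fragments, measured mHTT after 48 h compound exposure (0.6 nM–10 μM) in GM04724 cells. A parallel replicate plate gave CellTiter Glo viability.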

[5] = test system: SMN protein in spinal muscular atrophy (SMA) patient fibroblasts (GM03813, Coriell); test: SMN protein assay, Mesoscale Discovery (MSD); format: cell-based, human; details: for pEC50: read-out: SMN2 protein EC50
In short: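 Absolute SMN levels were quantified by MSD against an SMN protein standard curve (1 μg/ml to 19.5 pg/ml) run on each plate. Samples were lysates of GM03813 patient fibroblasts (7000 cells/well) treated 48 hours with compound doses from 2.5 μM down to 0.6 nM.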

[6] = test system: MDR1-MDCK cell monolayers; test: Blood-brain-barrier (BBB) penetration potential via MDCK-MDR1 permeability assay; details: for MDCK-MDR1: % Recov A-B: A-B direction; for MDCK-MDR1: % Recov B-A: B-A direction
MDR1 [7] = test: as above; details: dog, MDCK-MDR1, pH 7.4, MDCK-MDR1: Efflux, efflux ratio
MDR1 (P-gp) [8] = test: as above; details: dog; for Papp A→B at 120 min, 5 μM: MDCK-MDR1, pH 7.4, MDCK-MDR1: Papp A-B, A-B direction; for Papp B→A at 120 min, 5 μM: MDCK-MDR1, pH 7.4, MDCK-MDR1: Papp B-A, B-A direction
[9] = Quantitative splicing assay (HTT), qPCR; format: cell-based, human; details: Homo sapiens, GM04724, 24 h, GM04724 lymphoblasts, qPCR, read-out: HTT Splicing: E49-50 EC50
In short: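 TaqMan qPCR on cell-lysate cDNA quantifies cryptic-exon inclusion from HTT intron 49. Lymphoblasts plated at 50,000 cells/well had received compound for 24 h, 0.15 nM-2.5 uM range, 0.1% DMSO.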

[10] = test system: SMN FL and SMN Δ7 in spinal muscular atrophy (SMA) patient fibroblasts (GM03813, Coriell); test: Quantitative splicing assay (SMN), qPCR; format: cell-based, human; details: Homo sapiens, Fibroblast, 24 h, SMA patient fibroblasts GM03813, 24 h, qPCR; read-out: SMN2 Splicing FL EC50
Protocol: Spinal muscular atrophy (SMA) patient fibroblasts (GM03813, Coriell) are plated in 96-well plates at 50,000 cells/well. […] Treated cells are lysed and cDNA synthesized using the Fast Advanced Cells-to-Ct kit (Thermofisher A35378) according to the manufacturer's instructions. 2 μL of each cDNA are used in qPCR reactions. […] Reactions are run in a Quant Studio 6 qPCR instrument with default settings.

[11] = GM04724 Huntington's disease patient lymphoblasts
[12] = SMA patient fibroblasts GM03813, 48 hours, MSD
[13] = GM04724 (CAG 70/20) Huntington's disease patient lymphoblasts
[14] = SMA patient fibroblasts (GM03813), 48 hours

SMILES | efflux ratio at 120 min, 5 μM (MDR1 [1]) | Papp A→B at 120 min, 5 μM (MDR1 (P-gp) [2]) [×10⁻⁶ cm/s] | Papp B→A at 120 min, 5 μM (MDR1 (P-gp) [2]) [×10⁻⁶ cm/s] | MDCK-MDR1: % Recov A-B [3] [%] | MDCK-MDR1: % Recov B-A [3] [%] | mHTT protein EC50 [4, 11] | SMN2 protein EC50 [5, 12] | pEC50 [5, 12] | pEC50 [4, 11] | mHTT protein EC50 [4, 13] | SMN2 protein EC50 [5, 14] | MDCK-MDR1: % Recov A-B [6] [%] | MDCK-MDR1: % Recov B-A [6] [%] | efflux ratio at 120 min, 5 μM (MDR1 [7]) | Papp A→B at 120 min, 5 μM (MDR1 (P-gp) [8]) [×10⁻⁶ cm/s] | Papp B→A at 120 min, 5 μM (MDR1 (P-gp) [8]) [×10⁻⁶ cm/s] | pEC50 [9] | pEC50 [10]
CN(c1ccc(-c2cc3ccn(C)c(=O)c3s2)nn1)[C@H]1C[C@@H]2CC[C@@H](N2)[C@H]1F (single isomer, unassigned) [Compound 67B] | 86 | 0.47 | 40.9 | 91 | 96 | E (501 ≤ E ≤ 10.000) | E (501 ≤ E ≤ 10.000) |  |  |  |  |  |  |  |  |  |  | 
CN(c1ccc(-c2cc(C#N)c(F)cc2O)nn1)[C@@H]1C[C@H]2CC[C@H](N2)[C@@H]1F [Compound 72A, 2-fluoro-5-(6-(((1S,2S,3R,5R)-2-fluoro-8-azabicyclo[3.2.1]octan-3-yl)(methyl)amino)pyridazin-3-yl)-4-hydroxybenzonitrile] | 3 | 11.6 | 39.9 | 88 | 77 | E (501 ≤ E ≤ 10.000) | E (501 ≤ E ≤ 10.000) |  |  |  |  |  |  |  |  |  |  | 
CN(c1ccc(-c2cc3cnccc3cc2O)nn1)[C@@H]1C[C@H]2CC[C@@H]([C@@H]1F)N2C [Compound 93A, 7-(6-(((1S,2S,3R,5R)-2-fluoro-8-methyl-8-azabicyclo[3.2.1]octan-3-yl)(methyl)amino)pyridazin-3-yl)isoquinolin-6-ol] | 3 | 5.27 | 17.9 | 50 | 70 | E (501 ≤ E ≤ 10.000) |  | 6.30 to 7.00 |  |  |  |  |  |  |  |  |  | 
O=c1c2cc(O)c(-c3ccc(N(C4CC4)[C@H]4C[C@@H]5CC[C@@H](N5)[C@H]4F)nn3)cc2ncn1CC(F)(F)F (single isomer, unassigned) [Compound 60B] | 77 | 0.68 | 53 | 88 | 92 |  |  | 6.30 to 7.00 | 6.30 to 7.00 |  |  |  |  |  |  |  |  | 
CN(C)C(=O)c1cc(O)c(-c2ccc(N(C)[C@@H]3C[C@H]4CC[C@@H]([C@@H]3F)N4C)nn2)cc1F (single isomer, unassigned) [Compound 104A] | 35 | 1.23 | 43.1 | 106 | 105 |  |  |  |  | E (501 ≤ E ≤ 10.000) | E (501 ≤ E ≤ 10.000) |  |  |  |  |  |  | 
CC(=O)Nc1ccc(-c2ccc(N(C)[C@@H]3C[C@H]4CC[C@H](N4)[C@@H]3F)nn2)c(O)c1 (single isomer, unassigned) [Compound 32A] | 59 | 0.34 | 20.2 | 90 | 98 | E (501 ≤ E ≤ 10.000) | E (501 ≤ E ≤ 10.000) |  |  |  |  |  |  |  |  |  |  | 
CN(c1ccc(-c2cc(F)c(-n3ccnn3)cc2O)nn1)[C@@H]1C[C@H]2CC[C@@H]([C@@H]1F)N2C [Compound 103A, 4-fluoro-2-(6-(((1S,2S,3R,5R)-2-fluoro-8-methyl-8-azabicyclo[3.2.1]octan-3-yl)(methyl)amino)pyridazin-3-yl)-5-(1H-1,2,3-triazol-1-yl)phenol] | 4 | 13.9 | 60.3 | 86 | 91 |  |  |  |  | E (501 ≤ E ≤ 10.000) | E (501 ≤ E ≤ 10.000) |  |  |  |  |  |  | 
CC(=O)Nc1ccc(-c2ccc(N(C)[C@H]3C[C@@H]4CC[C@@H](N4)[C@H]3F)nn2)c(O)c1 (single isomer, unassigned) [Compound 32B] | 78 | 0.27 | 21.2 | 95 | 95 | E (501 ≤ E ≤ 10.000) | E (501 ≤ E ≤ 10.000) |  |  |  |  |  |  |  |  |  |  | 
CN(c1ccc(-c2cc3ncn(CC(F)(F)F)c(=O)c3cc2O)nn1)[C@@H]1C[C@H]2CC[C@@H]([C@@H]1F)N2C (single isomer, unassigned) [Compound 108A] | 49 | 1.51 | 73.7 | 82 | 91 |  |  |  |  | E (501 ≤ E ≤ 10.000) | E (501 ≤ E ≤ 10.000) |  |  |  |  |  |  | 
CN(c1ccc(-c2cc3ncn(CC(F)(F)F)c(=O)c3cc2O)nn1)[C@H]1C[C@@H]2CC(F)(F)[C@H](C1)N2C (single isomer, unassigned) [Compound 110B] | 4 | 11.7 | 47.4 | 86 | 93 |  |  |  |  | E (501 ≤ E ≤ 10.000) | E (501 ≤ E ≤ 10.000) |  |  |  |  |  |  | 
CN(c1ccc(-c2cc3ncn(CC(F)(F)F)c(=O)c3cc2O)nn1)[C@H]1C[C@@H]2CC(F)(F)[C@H](C1)N2 [Compound 59B, 7-(6-(((1R,3S,5S)-6,6-difluoro-8-azabicyclo[3.2.1]octan-3-yl)(methyl)amino)pyridazin-3-yl)-6-hydroxy-3-(2,2,2-trifluoroethyl)quinazolin-4(3H)-one] | 28 | 2.97 | 84.2 | 107 | 101 | E (501 ≤ E ≤ 10.000) | E (501 ≤ E ≤ 10.000) |  |  |  |  |  |  |  |  |  |  | 
CN(C)C(=O)c1cc(O)c(-c2ccc(N(C)[C@H]3C[C@@H]4CC[C@H]([C@H]3F)N4C)nn2)cc1F (single isomer, unassigned) [Compound 104B] | 56 | 0.89 | 50.2 | 99 | 105 |  |  |  |  | E (501 ≤ E ≤ 10.000) | E (501 ≤ E ≤ 10.000) |  |  |  |  |  |  | 
CN(c1ccc(-c2cnc(-c3cnn(C)c3)nc2O)nn1)[C@H]1C[C@@H]2CC[C@@H](N2)[C@H]1F (racemic) [Compound 122, rac-5-(6-(((1R,2R,3S,5S)-2-fluoro-8-azabicyclo[3.2.1]octan-3-yl)(methyl)amino)pyridazin-3-yl)-2-(1-methyl-1H-pyrazol-4-yl)pyrimidin-4-ol] | > 3 | < 0.2 | 0.6 | 86 | 98 |  |  |  |  |  | E (501 ≤ E ≤ 10.000) |  |  |  |  |  |  | 
CCN(c1ccc(-c2ccc(-c3cn[nH]c3)cc2O)nn1)[C@H]1C[C@@H]2CC[C@@H](N2)[C@H]1F [Compound 12B, 2-(6-(ethyl((1R,2R,3S,5S)-2-fluoro-8-azabicyclo[3.2.1]octan-3-yl)amino)pyridazin-3-yl)-5-(1H-pyrazol-4-yl)phenol] |  |  |  |  |  |  |  | 7.82 to 11.00 | 7.82 to 11.00 |  |  | 57 | 52 | 43 | 0.7 | 30.1 | 7.82 to 11.00 | 7.82 to 11.00
CN(c1ccc(-c2cc(F)c(-c3ccoc(=O)c3)cc2O)nn1)[C@H]1C[C@@H]2CC[C@@H](N2)[C@H]1F [Compound 17B, 4-(2-fluoro-4-(6-(((1R,2R,3S,5S)-2-fluoro-8-azabicyclo[3.2.1]octan-3-yl)(methyl)amino)pyridazin-3-yl)-5-hydroxyphenyl)-2H-pyran-2-one] |  |  |  |  |  |  |  | 7.30 to 7.80 | 7.30 to 7.80 |  |  | 62 | 79 | 19 | 1.91 | 36.8 | 7.30 to 7.80 | 7.00 to 7.29

— patent US12509460B2 (Skyhawk Therapeutics, Inc., priority 2019, dated 2025)
